Source: ChEMBL document CHEMBL5465560, “Selectivity Literature for EUbOPEN Chemogenomic Library” (2024)
Blank lines part the entries; values can stand above or below the molecule they belong to.

Experiments:
[1] = molecular target: T1, Serine/threonine-protein kinase D3 (Homo sapiens) (UniProt O94806); settings: at 10 µM
T1 sequence (whole entry): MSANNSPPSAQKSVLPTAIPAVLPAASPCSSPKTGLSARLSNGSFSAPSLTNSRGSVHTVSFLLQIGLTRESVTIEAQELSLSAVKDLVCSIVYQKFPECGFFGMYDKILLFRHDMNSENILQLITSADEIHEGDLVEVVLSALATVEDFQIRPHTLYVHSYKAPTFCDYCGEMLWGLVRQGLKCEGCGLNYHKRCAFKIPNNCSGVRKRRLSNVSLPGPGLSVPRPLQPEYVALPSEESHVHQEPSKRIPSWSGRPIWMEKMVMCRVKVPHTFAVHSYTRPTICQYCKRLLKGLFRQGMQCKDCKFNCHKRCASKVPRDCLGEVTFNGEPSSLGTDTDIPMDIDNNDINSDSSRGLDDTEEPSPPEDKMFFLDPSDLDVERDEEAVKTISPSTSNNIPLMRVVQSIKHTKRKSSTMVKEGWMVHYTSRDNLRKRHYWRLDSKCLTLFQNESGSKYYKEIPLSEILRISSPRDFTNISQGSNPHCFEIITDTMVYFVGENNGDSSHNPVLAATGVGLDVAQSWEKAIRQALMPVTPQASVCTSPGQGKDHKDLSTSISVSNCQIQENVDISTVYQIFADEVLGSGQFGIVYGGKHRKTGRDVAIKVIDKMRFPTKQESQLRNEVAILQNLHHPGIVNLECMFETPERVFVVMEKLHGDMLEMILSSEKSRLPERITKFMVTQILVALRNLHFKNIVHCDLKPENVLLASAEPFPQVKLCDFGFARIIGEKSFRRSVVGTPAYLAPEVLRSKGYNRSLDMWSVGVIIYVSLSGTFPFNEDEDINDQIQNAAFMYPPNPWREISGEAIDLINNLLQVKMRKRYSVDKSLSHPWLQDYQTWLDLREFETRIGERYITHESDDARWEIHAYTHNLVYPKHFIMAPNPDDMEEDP

[2] = molecular target: T2, Tyrosine-protein kinase receptor TYRO3 (Homo sapiens) (UniProt Q06418); assay: Selectivity interaction (Millipore kinase profiler) EUB0000124b TYRO3; settings: at 10 µM
T2 sequence (whole entry): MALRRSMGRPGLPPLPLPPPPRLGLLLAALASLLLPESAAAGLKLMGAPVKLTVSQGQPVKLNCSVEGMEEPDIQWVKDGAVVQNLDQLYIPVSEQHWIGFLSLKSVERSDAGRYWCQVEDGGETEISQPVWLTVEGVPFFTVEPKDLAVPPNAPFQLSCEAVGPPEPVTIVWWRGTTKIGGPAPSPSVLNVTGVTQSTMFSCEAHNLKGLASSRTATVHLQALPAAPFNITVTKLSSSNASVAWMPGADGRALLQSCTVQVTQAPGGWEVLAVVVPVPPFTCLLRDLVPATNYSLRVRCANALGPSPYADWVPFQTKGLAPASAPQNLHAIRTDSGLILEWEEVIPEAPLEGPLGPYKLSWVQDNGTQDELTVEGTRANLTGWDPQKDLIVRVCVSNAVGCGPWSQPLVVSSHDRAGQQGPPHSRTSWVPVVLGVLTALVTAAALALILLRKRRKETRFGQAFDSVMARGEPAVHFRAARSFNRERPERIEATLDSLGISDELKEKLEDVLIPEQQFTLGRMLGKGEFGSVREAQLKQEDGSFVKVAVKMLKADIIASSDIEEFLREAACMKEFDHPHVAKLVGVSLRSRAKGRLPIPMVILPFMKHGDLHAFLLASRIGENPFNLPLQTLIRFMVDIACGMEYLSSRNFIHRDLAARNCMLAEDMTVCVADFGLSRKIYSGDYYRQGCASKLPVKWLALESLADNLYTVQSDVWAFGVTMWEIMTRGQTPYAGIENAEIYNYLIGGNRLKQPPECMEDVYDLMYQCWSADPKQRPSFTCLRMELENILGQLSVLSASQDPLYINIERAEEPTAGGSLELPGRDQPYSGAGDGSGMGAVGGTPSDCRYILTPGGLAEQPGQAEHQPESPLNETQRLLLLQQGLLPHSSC

[3] = molecular target: Tyrosine-protein kinase ABL1 (Homo sapiens, UniProt P00519); assay: Selectivity interaction (Upstate Kinase Profiler service (Millipore)) EUB0000056c ABL1; settings: at 1 µM
[4] = molecular target: Transcription intermediary factor 1-beta (Homo sapiens) (UniProt Q13263); assay: Selectivity interaction (Bromodomain panel (DSF asssay)) EUB0000270b TRIM28
[5] = molecular target: T3, Mitogen-activated protein kinase 15 (Homo sapiens) (UniProt Q8TD08); assay: Selectivity interaction (KinomeScan (DiscoverX)) EUB0001049a MAPK15; settings: at 1 µM
T3 sequence (whole entry): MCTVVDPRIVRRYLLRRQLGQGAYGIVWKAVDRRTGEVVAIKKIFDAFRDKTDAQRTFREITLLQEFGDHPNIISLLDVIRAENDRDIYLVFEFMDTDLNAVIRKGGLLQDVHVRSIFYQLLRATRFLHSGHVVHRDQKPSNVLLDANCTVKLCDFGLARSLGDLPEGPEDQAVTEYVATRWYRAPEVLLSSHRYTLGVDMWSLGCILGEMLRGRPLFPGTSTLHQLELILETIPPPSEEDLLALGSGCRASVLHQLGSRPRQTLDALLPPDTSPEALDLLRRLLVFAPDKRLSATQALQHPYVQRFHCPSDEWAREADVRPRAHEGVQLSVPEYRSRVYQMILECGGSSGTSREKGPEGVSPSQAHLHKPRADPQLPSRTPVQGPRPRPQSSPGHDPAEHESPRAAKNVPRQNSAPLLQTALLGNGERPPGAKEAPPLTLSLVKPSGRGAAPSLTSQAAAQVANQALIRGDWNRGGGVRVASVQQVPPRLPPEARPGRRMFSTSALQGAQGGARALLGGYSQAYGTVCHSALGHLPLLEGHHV

D(1A) dopamine receptor = D(1A) dopamine receptor (Homo sapiens, UniProt P21728); assay: Selectivity interaction (GPCR panel (PDSP screen)) EUB0000311b DRD1; settings: at 10 µM
[6] = molecular target: Ribosomal protein S6 kinase alpha-5 (Homo sapiens) (UniProt O75582); assay: Selectivity interaction (KinomeScan (DiscoverX)) EUB0001868a RPS6KA5; settings: at 1 µM
[7] = molecular target: Death-associated protein kinase 2 (Homo sapiens) (UniProt Q9UIK4); assay: Selectivity interaction (LanthaScreen Eu Kinase Binding Assay) EUB0001632a DAPK2; settings: at 10 µM
Sequence of Death-associated protein kinase 2 (Homo sapiens) (Q9UIK4 whole entry, looked up): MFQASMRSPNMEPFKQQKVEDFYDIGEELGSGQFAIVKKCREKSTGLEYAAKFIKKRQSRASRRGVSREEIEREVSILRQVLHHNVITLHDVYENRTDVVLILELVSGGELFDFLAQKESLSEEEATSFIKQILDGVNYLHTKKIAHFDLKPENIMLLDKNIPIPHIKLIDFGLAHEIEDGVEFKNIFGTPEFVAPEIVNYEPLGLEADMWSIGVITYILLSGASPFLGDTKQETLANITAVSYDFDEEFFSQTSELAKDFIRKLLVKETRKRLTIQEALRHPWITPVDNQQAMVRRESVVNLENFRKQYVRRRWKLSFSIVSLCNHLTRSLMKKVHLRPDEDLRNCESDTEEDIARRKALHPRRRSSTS

Sequence of Ribosomal protein S6 kinase alpha-5 (Homo sapiens) (O75582 whole entry, looked up): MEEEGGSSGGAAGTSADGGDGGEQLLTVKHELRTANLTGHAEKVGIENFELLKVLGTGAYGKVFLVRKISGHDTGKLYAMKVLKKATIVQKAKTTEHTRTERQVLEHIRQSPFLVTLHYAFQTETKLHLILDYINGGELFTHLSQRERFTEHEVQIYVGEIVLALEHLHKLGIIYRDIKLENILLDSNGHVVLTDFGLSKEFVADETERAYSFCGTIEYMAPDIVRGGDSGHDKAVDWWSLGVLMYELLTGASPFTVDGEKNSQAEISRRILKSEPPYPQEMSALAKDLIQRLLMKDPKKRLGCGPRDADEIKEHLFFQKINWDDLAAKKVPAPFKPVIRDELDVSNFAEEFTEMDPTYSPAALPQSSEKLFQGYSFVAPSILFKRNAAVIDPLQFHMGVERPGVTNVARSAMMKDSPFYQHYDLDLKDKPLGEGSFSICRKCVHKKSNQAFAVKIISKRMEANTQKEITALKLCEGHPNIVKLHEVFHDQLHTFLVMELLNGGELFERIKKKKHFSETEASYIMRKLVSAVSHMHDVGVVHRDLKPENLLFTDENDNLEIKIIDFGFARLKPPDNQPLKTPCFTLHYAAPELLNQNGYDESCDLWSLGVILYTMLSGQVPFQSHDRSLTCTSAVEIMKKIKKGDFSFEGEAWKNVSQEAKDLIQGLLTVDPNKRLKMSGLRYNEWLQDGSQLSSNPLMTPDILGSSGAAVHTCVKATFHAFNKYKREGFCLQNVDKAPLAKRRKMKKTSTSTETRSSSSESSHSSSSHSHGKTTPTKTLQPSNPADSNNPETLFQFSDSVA
Sequence of Transcription intermediary factor 1-beta (Homo sapiens) (Q13263 whole entry): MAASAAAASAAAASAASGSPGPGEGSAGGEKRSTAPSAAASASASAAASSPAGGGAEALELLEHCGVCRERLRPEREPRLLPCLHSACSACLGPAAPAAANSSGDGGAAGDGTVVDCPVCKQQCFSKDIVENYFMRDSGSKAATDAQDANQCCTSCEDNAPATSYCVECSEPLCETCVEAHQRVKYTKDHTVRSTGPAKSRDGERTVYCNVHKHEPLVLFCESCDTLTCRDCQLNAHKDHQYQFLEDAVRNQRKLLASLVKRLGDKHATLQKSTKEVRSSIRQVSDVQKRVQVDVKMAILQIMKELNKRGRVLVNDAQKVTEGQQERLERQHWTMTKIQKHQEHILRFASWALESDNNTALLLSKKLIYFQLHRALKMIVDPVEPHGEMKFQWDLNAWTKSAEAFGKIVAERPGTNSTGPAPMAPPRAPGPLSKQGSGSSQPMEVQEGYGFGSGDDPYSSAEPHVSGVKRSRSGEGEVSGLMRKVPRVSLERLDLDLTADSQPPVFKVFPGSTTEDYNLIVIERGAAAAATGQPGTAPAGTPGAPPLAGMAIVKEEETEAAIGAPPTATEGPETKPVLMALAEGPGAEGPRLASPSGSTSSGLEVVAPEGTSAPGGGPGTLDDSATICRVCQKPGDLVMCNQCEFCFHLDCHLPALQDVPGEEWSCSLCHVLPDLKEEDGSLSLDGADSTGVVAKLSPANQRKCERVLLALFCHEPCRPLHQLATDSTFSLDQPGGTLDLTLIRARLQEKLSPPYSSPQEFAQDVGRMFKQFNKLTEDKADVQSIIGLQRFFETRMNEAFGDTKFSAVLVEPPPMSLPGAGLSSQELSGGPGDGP
Sequence of D(1A) dopamine receptor (P21728 whole entry): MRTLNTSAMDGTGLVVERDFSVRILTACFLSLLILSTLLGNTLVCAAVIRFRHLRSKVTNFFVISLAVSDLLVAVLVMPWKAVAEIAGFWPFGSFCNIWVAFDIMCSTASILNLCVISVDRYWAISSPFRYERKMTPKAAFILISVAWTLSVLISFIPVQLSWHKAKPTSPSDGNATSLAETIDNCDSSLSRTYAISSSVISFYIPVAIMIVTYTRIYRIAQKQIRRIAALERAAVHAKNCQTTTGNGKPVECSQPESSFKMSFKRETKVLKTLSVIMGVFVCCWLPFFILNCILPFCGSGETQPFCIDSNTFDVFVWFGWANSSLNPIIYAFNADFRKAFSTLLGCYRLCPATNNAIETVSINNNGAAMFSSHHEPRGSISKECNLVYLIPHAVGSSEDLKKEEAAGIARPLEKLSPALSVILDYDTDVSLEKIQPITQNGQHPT
Sequence of Tyrosine-protein kinase ABL1 (P00519 whole entry): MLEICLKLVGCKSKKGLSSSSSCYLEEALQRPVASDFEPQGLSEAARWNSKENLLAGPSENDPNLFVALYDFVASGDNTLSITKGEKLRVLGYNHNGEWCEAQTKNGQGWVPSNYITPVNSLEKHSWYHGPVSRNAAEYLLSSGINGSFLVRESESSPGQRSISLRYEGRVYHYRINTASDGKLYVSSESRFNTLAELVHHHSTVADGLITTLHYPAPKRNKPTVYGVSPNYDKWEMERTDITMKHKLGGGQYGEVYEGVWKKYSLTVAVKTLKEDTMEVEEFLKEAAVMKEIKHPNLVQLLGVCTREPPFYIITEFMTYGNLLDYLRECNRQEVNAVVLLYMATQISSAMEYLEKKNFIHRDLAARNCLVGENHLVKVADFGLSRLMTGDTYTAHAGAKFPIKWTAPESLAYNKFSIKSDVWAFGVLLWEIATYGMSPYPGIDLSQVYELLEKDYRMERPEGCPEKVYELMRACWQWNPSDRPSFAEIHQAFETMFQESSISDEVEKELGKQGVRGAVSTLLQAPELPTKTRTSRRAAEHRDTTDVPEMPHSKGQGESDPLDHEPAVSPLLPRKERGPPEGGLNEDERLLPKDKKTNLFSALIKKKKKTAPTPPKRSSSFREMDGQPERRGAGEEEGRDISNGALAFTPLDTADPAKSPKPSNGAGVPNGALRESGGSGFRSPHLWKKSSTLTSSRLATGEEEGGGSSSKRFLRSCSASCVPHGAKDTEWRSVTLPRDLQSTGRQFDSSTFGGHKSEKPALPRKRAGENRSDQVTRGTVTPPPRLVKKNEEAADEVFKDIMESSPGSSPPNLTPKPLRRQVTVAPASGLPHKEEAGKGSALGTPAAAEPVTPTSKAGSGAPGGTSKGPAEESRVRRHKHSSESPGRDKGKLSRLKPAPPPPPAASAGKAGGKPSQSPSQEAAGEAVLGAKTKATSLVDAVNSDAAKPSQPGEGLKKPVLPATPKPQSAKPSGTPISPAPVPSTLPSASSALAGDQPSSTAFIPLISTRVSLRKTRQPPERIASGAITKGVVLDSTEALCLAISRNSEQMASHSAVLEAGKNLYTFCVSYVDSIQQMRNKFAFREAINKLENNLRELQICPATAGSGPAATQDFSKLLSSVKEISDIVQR

% of control [1]: 100%
Structure (SMILES): CCN(CC)CCCCNc1ncc2cc(-c3cc(OC)cc(OC)c3)c(NC(=O)NC(C)(C)C)nc2n1

% of control [2]: 112%
Structure (SMILES): CC(=O)Nc1cccc(-n2c(=O)n(C3CC3)c(=O)c3c(Nc4ccc(I)cc4F)n(C)c(=O)c(C)c32)c1

% of inhibition [3]: 18%
Structure (SMILES): Cc1ccc(-c2ccc3c(ccc4sc5c(c43)NC[C@@H](C)NC5=O)n2)cn1

dTM [4]: -1.65 K
Structure (SMILES): Cc1cc(CN)cc(C)c1-c1ncn(C)c1-c1cncn1C

Structure (SMILES): COc1cc(Nc2nc(C)cc(-c3cnn4nc(OC)ccc34)n2)cc(C(F)(F)F)c1
% of control [5]: 96%

% of inhibition (D(1A) dopamine receptor): 67.4%
Structure (SMILES): CCc1ccccc1C(=O)Nc1n[nH]c2c(C)c(F)c(C3C(C#N)=C(C)N(C)C(C)=C3C#N)cc12 [BAY-3827]

% of control [6]: 42%
Structure (SMILES): Cc1cc(-c2ccnc(Nc3cnn(C)c3)n2)ccc1CNC(=O)N1CC(OC(C)C)C1

Structure (SMILES): Cn1cc(-n2cnc3c(NCc4nc5cc(Cl)c(Cl)cc5[nH]4)nc(N4CCOCC4)nc32)cn1
% of inhibition [7]: -5.23%
